Test results: patent US7598417B2, “Substituted fluoroethyl ureas as alpha 2 adrenergic agents” (Allergan, Inc., priority 2007, dated 2009)

target: T1, alpha2A receptor (Homo sapiens, UniProt P08913); experiment: Receptor Selection and Amplification Technology (RSAT) assay, alpha2A; assay type: cell-based; details: RSAT, NIH-3T3 cells cotransfected with receptor and Gq/i5; not active = not active at concentrations less than 10 micromolar; read-out: Alpha 2A EC50
T1 construct: expressed in transfected cells; host or cells: NIH-3T3
T1 sequence (P08913 1-465): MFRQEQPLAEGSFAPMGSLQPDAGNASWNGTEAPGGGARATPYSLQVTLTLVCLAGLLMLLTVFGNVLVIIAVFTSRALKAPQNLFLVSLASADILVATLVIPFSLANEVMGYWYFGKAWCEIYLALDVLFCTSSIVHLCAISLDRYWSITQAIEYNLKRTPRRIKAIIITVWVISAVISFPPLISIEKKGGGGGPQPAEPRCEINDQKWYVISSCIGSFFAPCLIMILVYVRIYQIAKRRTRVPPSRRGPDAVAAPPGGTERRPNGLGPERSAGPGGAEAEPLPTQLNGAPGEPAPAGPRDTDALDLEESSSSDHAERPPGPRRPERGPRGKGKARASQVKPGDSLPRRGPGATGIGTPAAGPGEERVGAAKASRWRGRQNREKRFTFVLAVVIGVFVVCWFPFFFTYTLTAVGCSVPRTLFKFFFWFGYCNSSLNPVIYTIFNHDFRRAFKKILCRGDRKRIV
Procedure: (§1) Receptor Selection and Amplification Technology (RSAT) Assay
(§2) The RSAT assay measures a receptor-mediated loss of contact inhibition that results in selective proliferation of receptor-containing cells in a mixed population of confluent cells. The increase in cell number is assessed with an appropriate transfected marker gene such as β-galactosidase, the activity of which can be easily measured in a 96-well format. Receptors that activate the G protein, Gq, elicit this response. Alpha2 receptors, which normally couple to Gi, activate the RSAT response when coexpressed with a hybrid Gq protein that has a Gi receptor recognition domain, called Gq/i5.
(§3) NIH-3T3 cells are plated at a density of 2×10^6 cells in 15 cm dishes and maintained in Dulbecco's modified Eagle's medium supplemented with 10% calf serum. One day later, cells are cotransfected by calcium phosphate precipitation with mammalian expression plasmids encoding p-SV-β-galactosidase (5-10 μg), receptor (1-2 μg) and G protein (1-2 μg). 40 μg salmon sperm DNA may also be included in the transfection mixture. Fresh media is added on the following day and 1-2 days later, cells are harvested and frozen in 50 assay aliquots. Cells are thawed and 100 μl added to 100 μl aliquots of various concentrations of drugs in triplicate in 96-well dishes. Incubations continue 72-96 hr at 37° C. After washing with phosphate-buffered saline, β-galactosidase enzyme activity is determined by adding 200 μl of the chromogenic substrate (consisting of 3.5 mM o-nitrophenyl-β-D-galactopyranoside and 0.5% nonidet P-40 in phosphate buffered saline), incubating overnight at 30° C. and measuring optical density at 420 nm. The absorbance is a measure of enzyme activity, which depends on cell number and reflects a receptor-mediated cell proliferation. The efficacy or intrinsic activity is calculated as a ratio of the maximal effect of the drug to the maximal effect of a standard full agonist for each receptor subtype. Brimonidine, also called UK14304, the chemical structure of which is shown below, is used as the standard agonist for the alpha2A, alpha2B and alpha2C receptors. The EC50 is the concentration at which the drug effect is half of its maximal effect.
(§4) EC50 values are nanomolar. NA stands for “not active” at concentrations less than 10 micromolar. IA stands for “intrinsic activity.”

| SMILES | EC50 [nM] |
| --- | --- |
| Cc1cc(C)c2c(c1)C(NC(=O)NCCF)CCC2 (stereo not drawn) | 109 |
| O=C(NCCF)NC1CCCCc2ccccc21 (stereo not drawn) | 534 |
| CCc1cccc2c1CCCC2NC(=O)NCCF (stereo not drawn) | 450 |
| O=C(NCCF)NC1CCc2cccc(F)c21 (stereo not drawn) | 59.6 |
| O=C(NCCF)NC1CCc2cccc(Br)c21 (stereo not drawn) | 111 |
| O=C(NCCF)NC1CCc2cccc(Cl)c21 (stereo not drawn) | 29 |
| O=C(NCCF)NC1CCc2c(OC(=O)c3ccccc3)cccc21 (stereo not drawn) | 95 |
| O=C(NCCF)NC1CCc2c(O)cccc21 (stereo not drawn) | 186 |
| Nc1cccc2c1CCC2NC(=O)NCCF (stereo not drawn) | 429 |
| O=C(NCCF)NC1CCc2ncccc21 (stereo not drawn) | 2550 |

same assay, conditions: ratio of maximal effect of the drug to maximal effect of standard full agonist brimonidine (UK14304)

| SMILES | Alpha 2A IA (intrinsic activity) |
| --- | --- |
| Cc1cc(C)c2c(c1)C(NC(=O)NCCF)CCC2 (stereo not drawn) | 0.49 |
| O=C(NCCF)NC1CCCCc2ccccc21 (stereo not drawn) | 0.3 |
| CCc1cccc2c1CCCC2NC(=O)NCCF (stereo not drawn) | 0.32 |
| O=C(NCCF)NC1CCc2cccc(F)c21 (stereo not drawn) | 0.41 |
| O=C(NCCF)NC1CCc2cccc(Br)c21 (stereo not drawn) | 0.52 |
| O=C(NCCF)NC1CCc2cccc(Cl)c21 (stereo not drawn) | 0.68 |
| O=C(NCCF)NC1CCc2c(OC(=O)c3ccccc3)cccc21 (stereo not drawn) | 0.62 |
| O=C(NCCF)NC1CCc2c(O)cccc21 (stereo not drawn) | 0.53 |
| Nc1cccc2c1CCC2NC(=O)NCCF (stereo not drawn) | 0.48 |
| O=C(NCCF)NC1CCc2ncccc21 (stereo not drawn) | 0.55 |

target: T2, alpha2B receptor (Homo sapiens, UniProt P18089); experiment: Receptor Selection and Amplification Technology (RSAT) assay, alpha2B; assay type: cell-based; details: RSAT, NIH-3T3 cells cotransfected with receptor and Gq/i5; not active = not active at concentrations less than 10 micromolar; read-out: Alpha 2B EC50
T2 construct: expressed in transfected cells; host or cells: NIH-3T3
T2 sequence (P18089 1-450): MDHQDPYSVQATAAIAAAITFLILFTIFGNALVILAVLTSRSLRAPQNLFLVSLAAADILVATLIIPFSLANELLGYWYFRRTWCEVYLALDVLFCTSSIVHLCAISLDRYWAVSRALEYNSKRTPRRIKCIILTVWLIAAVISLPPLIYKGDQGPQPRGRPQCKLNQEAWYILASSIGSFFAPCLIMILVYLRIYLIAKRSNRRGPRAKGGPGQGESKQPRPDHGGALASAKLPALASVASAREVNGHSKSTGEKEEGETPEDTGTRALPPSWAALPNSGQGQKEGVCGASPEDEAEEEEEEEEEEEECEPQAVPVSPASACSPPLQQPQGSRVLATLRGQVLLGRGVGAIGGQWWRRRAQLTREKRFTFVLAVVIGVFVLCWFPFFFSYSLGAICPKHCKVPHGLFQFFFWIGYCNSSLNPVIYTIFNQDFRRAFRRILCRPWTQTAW
Procedure: as §1, §2, §3
The results of the RSAT assay with several exemplary compounds of the invention are disclosed in Table 1 above together with the chemical formulas of these exemplary compounds. EC50 values are nanomolar. NA stands for “not active” at concentrations less than 10 micromolar. IA stands for “intrinsic activity.”

| SMILES | EC50 [nM] |
| --- | --- |
| Cc1cc(C)c2c(c1)C(NC(=O)NCCF)CCC2 (stereo not drawn) | 27 |
| O=C(NCCF)NC1CCCCc2ccccc21 (stereo not drawn) | 212 |
| CCc1cccc2c1CCCC2NC(=O)NCCF (stereo not drawn) | 158 |
| O=C(NCCF)NC1CCc2cccc(F)c21 (stereo not drawn) | 8.8 |
| O=C(NCCF)NC1CCc2cccc(Br)c21 (stereo not drawn) | 20 |
| O=C(NCCF)NC1CCc2cccc(Cl)c21 (stereo not drawn) | 7.2 |
| O=C(NCCF)NC1CCc2c(OC(=O)c3ccccc3)cccc21 (stereo not drawn) | 8.3 |
| O=C(NCCF)NC1CCc2c(O)cccc21 (stereo not drawn) | 9.6 |
| Nc1cccc2c1CCC2NC(=O)NCCF (stereo not drawn) | 36.6 |
| O=C(NCCF)NC1CCc2ncccc21 (stereo not drawn) | 100 |

same assay, conditions: ratio of maximal effect of the drug to maximal effect of standard full agonist brimonidine (UK14304)

| SMILES | Alpha 2B IA (intrinsic activity) |
| --- | --- |
| Cc1cc(C)c2c(c1)C(NC(=O)NCCF)CCC2 (stereo not drawn) | 0.91 |
| O=C(NCCF)NC1CCCCc2ccccc21 (stereo not drawn) | 0.65 |
| CCc1cccc2c1CCCC2NC(=O)NCCF (stereo not drawn) | 0.93 |
| O=C(NCCF)NC1CCc2cccc(F)c21 (stereo not drawn) | 1.08 |
| O=C(NCCF)NC1CCc2cccc(Br)c21 (stereo not drawn) | 1.01 |
| O=C(NCCF)NC1CCc2cccc(Cl)c21 (stereo not drawn) | 1.05 |
| O=C(NCCF)NC1CCc2c(OC(=O)c3ccccc3)cccc21 (stereo not drawn) | 0.95 |
| O=C(NCCF)NC1CCc2c(O)cccc21 (stereo not drawn) | 0.96 |
| Nc1cccc2c1CCC2NC(=O)NCCF (stereo not drawn) | 1.0 |
| O=C(NCCF)NC1CCc2ncccc21 (stereo not drawn) | 1.08 |

target: T3, alpha2C receptor (Homo sapiens, UniProt P18825); experiment: Receptor Selection and Amplification Technology (RSAT) assay, alpha2C; assay type: cell-based; details: RSAT, NIH-3T3 cells cotransfected with receptor and Gq/i5; not active = not active at concentrations less than 10 micromolar; read-out: Alpha 2C EC50
T3 construct: expressed in transfected cells; host or cells: NIH-3T3
T3 sequence (P18825 1-462): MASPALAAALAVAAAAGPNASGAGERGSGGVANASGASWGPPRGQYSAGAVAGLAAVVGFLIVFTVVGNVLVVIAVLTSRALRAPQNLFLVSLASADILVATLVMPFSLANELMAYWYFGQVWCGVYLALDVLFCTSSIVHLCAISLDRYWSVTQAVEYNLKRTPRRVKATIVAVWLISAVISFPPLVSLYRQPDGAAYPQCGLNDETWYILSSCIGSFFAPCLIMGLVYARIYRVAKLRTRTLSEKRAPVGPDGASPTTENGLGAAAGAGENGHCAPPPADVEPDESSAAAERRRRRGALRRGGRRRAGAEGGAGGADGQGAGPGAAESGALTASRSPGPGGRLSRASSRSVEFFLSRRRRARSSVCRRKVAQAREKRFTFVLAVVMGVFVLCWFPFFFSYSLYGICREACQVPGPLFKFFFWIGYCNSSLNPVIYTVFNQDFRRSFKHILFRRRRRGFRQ
Procedure: as §1, §2, §3, §4

| SMILES | EC50 [nM] |
| --- | --- |
| Cc1cc(C)c2c(c1)C(NC(=O)NCCF)CCC2 (stereo not drawn) | 391 |
| O=C(NCCF)NC1CCCCc2ccccc21 (stereo not drawn) | 967 |
| CCc1cccc2c1CCCC2NC(=O)NCCF (stereo not drawn) | 904 |
| O=C(NCCF)NC1CCc2cccc(F)c21 (stereo not drawn) | 95.4 |
| O=C(NCCF)NC1CCc2cccc(Br)c21 (stereo not drawn) | 716 |
| O=C(NCCF)NC1CCc2cccc(Cl)c21 (stereo not drawn) | 103 |
| O=C(NCCF)NC1CCc2c(OC(=O)c3ccccc3)cccc21 (stereo not drawn) | 102 |
| O=C(NCCF)NC1CCc2c(O)cccc21 (stereo not drawn) | 73 |
| Nc1cccc2c1CCC2NC(=O)NCCF (stereo not drawn) | 1300 |
| O=C(NCCF)NC1CCc2ncccc21 (stereo not drawn) | 2460 |

same assay, conditions: ratio of maximal effect of the drug to maximal effect of standard full agonist brimonidine (UK14304)

| SMILES | Alpha 2C IA (intrinsic activity) |
| --- | --- |
| Cc1cc(C)c2c(c1)C(NC(=O)NCCF)CCC2 (stereo not drawn) | 0.58 |
| O=C(NCCF)NC1CCCCc2ccccc21 (stereo not drawn) | 0.5 |
| CCc1cccc2c1CCCC2NC(=O)NCCF (stereo not drawn) | 0.34 |
| O=C(NCCF)NC1CCc2cccc(F)c21 (stereo not drawn) | 0.55 |
| O=C(NCCF)NC1CCc2cccc(Br)c21 (stereo not drawn) | 0.97 |
| O=C(NCCF)NC1CCc2cccc(Cl)c21 (stereo not drawn) | 0.78 |
| O=C(NCCF)NC1CCc2c(OC(=O)c3ccccc3)cccc21 (stereo not drawn) | 0.73 |
| O=C(NCCF)NC1CCc2c(O)cccc21 (stereo not drawn) | 0.73 |
| Nc1cccc2c1CCC2NC(=O)NCCF (stereo not drawn) | 0.54 |
| O=C(NCCF)NC1CCc2ncccc21 (stereo not drawn) | 0.41 |
